{
  "source": "patent US8772268B2",
  "about": "“Bisphosphonamidate prodrugs and uses thereof” (The Johns Hopkins University, priority 2010, dated 2014)",
  "key": {"[1]": {"assay": "In vivo tolerance study, intraperitoneal dosing", "set-up": "species or system Balb/C mice", "settings": "listed as clodronate prodrug", "experimental": "Thirteen Balb/C mice were split into four groups; untreated, vehicle, dose 1 and dose 2. Untreated mice received no treatment or injection. The vehicle was 100 μL of corn oil. Mice receiving dose 1 received 100 μL of 30 mM clodronate prodrug dissolved in corn oil (2.17 mg/dose), which is about 110 mg/kg dose. Mice receiving dose 2 received 100 μL of 50 mM clodronate prodrug dissolved in corn oil (3.61 mg/dose), which is about a 200 mg/kg dose. Mice were dosed on Monday of each week for two weeks. The weights were measured for 4 consecutive days following dosing."}, "HOP-62": {"system": "HOP-62", "assay": "NCI-60 DTP Human Tumor Cell Line Screen", "format": "cell-based", "settings": "HOP-62, Non-Small Cell Lung Cancer, 48 h"}, "T-47D": {"system": "T-47D", "assay": "NCI-60 DTP Human Tumor Cell Line Screen", "format": "cell-based", "settings": "Breast Cancer, 48 h"}, "SK-MEL-5": {"system": "SK-MEL-5", "assay": "NCI-60 DTP Human Tumor Cell Line Screen", "format": "cell-based", "settings": "SK-MEL-5, Melanoma, 48 h"}, "NCI/ADR-RES": {"system": "NCI/ADR-RES", "assay": "NCI-60 DTP Human Tumor Cell Line Screen", "format": "cell-based", "settings": "Ovarian Cancer, 48 h"}, "M14": {"system": "M14", "assay": "NCI-60 DTP Human Tumor Cell Line Screen", "format": "cell-based", "settings": "M14, Melanoma, 48 h"}, "RXF 393": {"system": "RXF 393", "assay": "NCI-60 DTP Human Tumor Cell Line Screen", "format": "cell-based", "settings": "RXF 393, Renal Cancer, 48 h"}, "MDA-MB-231/ATCC": {"system": "MDA-MB-231/ATCC", "assay": "NCI-60 DTP Human Tumor Cell Line Screen", "format": "cell-based", "settings": "Breast Cancer, 48 h"}, "P. falciparum (NF54)": {"system": "P. falciparum (NF54)", "assay": "Antimalarial [3H]-hypoxanthine incorporation assay", "format": "cell-based, Plasmodium falciparum", "settings": "P. falciparum (NF54); read-out: IC50", "experimental": "Plasmodium falciparum culture. NF54 P. falciparum parasites were maintained in O+ positive erythrocytes (obtained weekly from a rotating pool of screened healthy donors) in complete medium containing RPMI (Sigma), 25 mM N-2-hydroxyethylpiperazine-N′-2-ethanesulfonic acid (HEPES; Sigma), 27 mM sodium bicarbonate (Sigma) and 10% heat-inactivated male O+ serum in non-vented flasks. Hematocrit was maintained at 2.4%. Flasks were gassed with a mixture of 3% oxygen, 4% carbon dioxide, 93% nitrogen. Parasitemia was maintained at 0.1-5% by changing medium and erythrocytes two to three times a week.\nAntimalarial activity was measured using a [^3H]-hypoxanthine incorporation assay as described previously (Desjardins et al., Antimicrob. Agents Chemother., vol. 16, p. 710, 1979; Milhous et al., Antimicrob. Agents Chemother., vol. 27, np. 525, 1985). […] For surveys, each concentration was assayed in triplicate while in expansions, each concentration was assayed in quadruplicate. To each well, 0.64 μCi of [^3H]-hypoxanthine (10-30 Ci/mmol; Perkin Elmer) was added and the plate was incubated for an additional 20 to 24 h. Samples from each well were harvested on filter paper and tritium counts were measured on the Beckmann Coulter LS6500 scintillation counter. […] Values considered as outliers according to Chauvenet's criterion were discarded and dropped from analysis. One survey and at least one expansion was performed for each compound."}, "786-0": {"system": "786-0", "assay": "NCI-60 DTP Human Tumor Cell Line Screen", "format": "cell-based", "settings": "786-0, Renal Cancer, 48 h"}, "TK-10": {"system": "TK-10", "assay": "NCI-60 DTP Human Tumor Cell Line Screen", "format": "cell-based", "settings": "TK-10, Renal Cancer, 48 h"}, "L1210": {"system": "L1210", "assay": "Cytotoxicity, L1210", "format": "cell-based"}, "OVCAR-3": {"system": "OVCAR-3", "assay": "NCI-60 DTP Human Tumor Cell Line Screen", "format": "cell-based", "settings": "OVCAR-3, Ovarian Cancer, 48 h"}, "caspases 3/7": {"system": "caspases 3/7", "assay": "Caspase Glo 3/7 assay", "format": "cell-based", "settings": "higher drug concentrations, by 48 hours", "experimental": "Caspase Glo 3/7 (Promega) assay was used to determine caspases 3/7 activation following treatment of cells with clodronate prodrug. Briefly, cells were treated with clodronate prodrug for 24, 48, or 72 h. Caspase glo 3/7 (Promega) reagent ([…]) was added to each well at 24, 48 or 72 h. The cells were then incubated at room temperature for 1 h, and the luminescence of each well was determined using a luminometer."}, "UO-31": {"system": "UO-31", "assay": "NCI-60 DTP Human Tumor Cell Line Screen", "format": "cell-based", "settings": "UO-31, Renal Cancer, 48 h"}, "A549 NSCLC cells": {"system": "A549 NSCLC cells", "assay": "Cell cycle analysis (PI and flow cytometry)", "format": "cell-based", "settings": "A549, 0, 3, or 10 μM for 72 h, nocodazole for the last 24 h", "method": "PI and flow cytometry analysis were performed to study the effects of prodrug 14 on cell cycle.\nBriefly, A549 NSCLC cells were plated at 6.7×10^4 cells per well in flat bottom 6-well plates. Cells were dosed as described above. At 24, 48 or 72 hours following drug treatment, the media was collected, and the cells were washed with 1 mL PBS. Each well was trypsinized with 600 μL trypsin for 3-5 min. The trypsin reaction was quenched with an equal volume of media. All supernatants and washes were combined and centrifuged at 1,500 rpm for 5 min. Supernantant was decanted, and the cells were washed with 2 mL 1% FBS/PBS. Cells were centrifuged at 1,500 rpm for 5 min, and the supernatant was decanted. Cells were resuspended in 1 mL cold PBS, fixed in cold 70% ethanol and incubated at 4° C. for at least 30 min. Cells were centrifuged at 1,500 rpm for 5 min, washed with 1% FBS/PBS, and resuspended in 1 mL of 2:1 1% FBS in PBS/phosphate citric acid buffer (pH 7.8). Cells were incubated at room temperature for 5 min, then spun at 1,500 rpm for 5 min. The supernatant was decanted, the cells were resuspended and incubated in 300 μL PBS/FBS/PURNase solution (10 μg/mL propidium iodide and 3 K.U. of RNase A) for 30 mM at 37° C. Flow cytometry was performed to analyze DNA content, collecting ten thousand PI positive gated events per sample."}},
  "note": "“And” between values parts separate entries of the source, which are not always exact repeats. Equal entries are not always repeated. “Also recorded” adds a separate entry of the source.",
  "data": [
    {"molecule": "CN(CCCCCl)P(=O)(OCc1ccc([N+](=O)[O-])cc1)C(Cl)(Cl)P(=O)(OCc1ccc([N+](=O)[O-])cc1)N(C)CCCCCl", "note": "(stereo not drawn) [compound 14]", "values": [
      {"measurement": "Wt", "setting": "[1]; Dose 1 (about 110 mg/kg i.p.), week 1, Apr. 11, 2011, individual mice", "value": "19.2 g and 18.3 g and 19.4 g"},
      {"measurement": "Wt", "setting": "[1]; Dose 1, 2nd week of treatment, Apr. 18, 2011", "value": "19.3 g and 18.8 g and 18.4 g"},
      {"measurement": "Wt", "setting": "[1]; Dose 1, 2nd week, Apr. 19, 2011", "value": "19.3 g and 18.9 g and 18.3 g"},
      {"measurement": "Wt", "setting": "[1]; Dose 1, 2nd week, Apr. 20, 2011", "value": "19.4 g and 18.9 g and 18.4 g"},
      {"measurement": "Wt", "setting": "[1]; Dose 1, 2nd week, Apr. 21, 2011", "value": "19.1 g and 18.9 g and 18.6 g"},
      {"measurement": "Wt", "setting": "[1]; Dose 1, 2nd week, Apr. 22, 2011", "value": "19.3 g and 19.2 g and 18.3 g"},
      {"measurement": "Wt", "setting": "[1]; Dose 1, week 1, Apr. 12, 2011", "value": "19.3 g and 18.1 g and 18.4 g"},
      {"measurement": "Wt", "setting": "[1]; Dose 1, week 1, Apr. 13, 2011", "value": "19.8 g and 18.8 g and 18.7 g"},
      {"measurement": "Wt", "setting": "[1]; Dose 1, week 1, Apr. 14, 2011", "value": "19.8 g and 18.7 g and 19.1 g"},
      {"measurement": "Wt", "setting": "[1]; Dose 1, week 1, Apr. 15, 2011", "value": "19.5 g and 19.01 g and 18.8 g"},
      {"measurement": "Wt", "setting": "[1]; Dose 2 (about 200 mg/kg i.p.), week 1, Apr. 11, 2011, individual mice", "value": "18.7 g and 18.2 g and 19.1 g"},
      {"measurement": "Wt", "setting": "[1]; Dose 2, 2nd week of treatment, Apr. 18, 2011", "value": "19.3 g and 19.1 g and 19.5 g"},
      {"measurement": "Wt", "setting": "[1]; Dose 2, 2nd week, Apr. 19, 2011", "value": "19.1 g and 19.3 g and 19.5 g"},
      {"measurement": "Wt", "setting": "[1]; Dose 2, 2nd week, Apr. 20, 2011", "value": "18.8 g and 19 g"},
      {"measurement": "Wt", "setting": "[1]; Dose 2, 2nd week, Apr. 21, 2011", "value": "19 g and 19.4 g"},
      {"measurement": "Wt", "setting": "[1]; Dose 2, 2nd week, Apr. 22, 2011", "value": "18.9 g and 19.5 g and 20 g"},
      {"measurement": "Wt", "setting": "[1]; Dose 2, week 1, Apr. 12, 2011", "value": "17.8 g and 17.7 g and 18.2 g"},
      {"measurement": "Wt", "setting": "[1]; Dose 2, week 1, Apr. 13, 2011", "value": "19.07 g and 18.8 g"},
      {"measurement": "Wt", "setting": "[1]; Dose 2, week 1, Apr. 14, 2011", "value": "19.03 g and 18.8 g and 19.1 g"},
      {"measurement": "Wt", "setting": "[1]; Dose 2, week 1, Apr. 15, 2011", "value": "18.7 g and 18.2 g and 19.6 g"},
      {"measurement": "Log10GI50", "setting": "HOP-62", "value": ">−4.00"},
      {"measurement": "Log10LC50", "setting": "HOP-62", "value": ">−4.00"},
      {"measurement": "Log10TGI", "setting": "HOP-62", "value": ">−4.00"},
      {"measurement": "Log10GI50", "setting": "T-47D", "value": "−5.27"},
      {"measurement": "Log10LC50", "setting": "T-47D", "value": ">−4.00"},
      {"measurement": "Log10TGI", "setting": "T-47D", "value": ">−4.00"},
      {"measurement": "Log10GI50", "setting": "SK-MEL-5", "value": "−5.69"},
      {"measurement": "Log10LC50", "setting": "SK-MEL-5", "value": "−5.05"},
      {"measurement": "Log10TGI", "setting": "SK-MEL-5", "value": "−5.37"},
      {"measurement": "Log10GI50", "setting": "NCI/ADR-RES", "value": "−5.58"},
      {"measurement": "Log10LC50", "setting": "NCI/ADR-RES", "value": ">−4.00"},
      {"measurement": "Log10TGI", "setting": "NCI/ADR-RES", "value": ">−4.00"},
      {"measurement": "Log10GI50", "setting": "M14", "value": "−5.40"},
      {"measurement": "Log10LC50", "setting": "M14", "value": ">−4.00"},
      {"measurement": "Log10TGI", "setting": "M14", "value": ">−4.00"},
      {"measurement": "Log10GI50", "setting": "RXF 393", "value": "−5.50"},
      {"measurement": "Log10LC50", "setting": "RXF 393", "value": ">−4.00"},
      {"measurement": "Log10TGI", "setting": "RXF 393", "value": "−4.38"},
      {"measurement": "Log10GI50", "setting": "MDA-MB-231/ATCC", "value": "−5.51"},
      {"measurement": "Log10LC50", "setting": "MDA-MB-231/ATCC", "value": ">−4.00"},
      {"measurement": "Log10TGI", "setting": "MDA-MB-231/ATCC", "value": ">−4.00"},
      {"measurement": "IC50", "setting": "P. falciparum (NF54)", "value": "0.98 ± 0.21", "unit": "µM"},
      {"measurement": "Log10GI50", "setting": "786-0", "value": "−5.28"},
      {"measurement": "Log10LC50", "setting": "786-0", "value": ">−4.00"},
      {"measurement": "Log10TGI", "setting": "786-0", "value": ">−4.00"},
      {"measurement": "Log10GI50", "setting": "TK-10", "value": "−5.35"},
      {"measurement": "Log10LC50", "setting": "TK-10", "value": ">−4.00"},
      {"measurement": "Log10TGI", "setting": "TK-10", "value": ">−4.00"},
      {"measurement": "IC50", "setting": "L1210", "value": "11.7 ± 1.78", "unit": "µM"},
      {"measurement": "Log10GI50", "setting": "OVCAR-3", "value": "−5.40"},
      {"measurement": "Log10LC50", "setting": "OVCAR-3", "value": ">−4.00"},
      {"measurement": "Log10TGI", "setting": "OVCAR-3", "value": ">−4.00"},
      {"measurement": "caspases 3/7 activation", "setting": "caspases 3/7", "value": "Activation of caspases 3/7"},
      {"measurement": "Log10GI50", "setting": "UO-31", "value": "−5.76"},
      {"measurement": "Log10LC50", "setting": "UO-31", "value": ">−4.00"},
      {"measurement": "Log10TGI", "setting": "UO-31", "value": ">−4.00"},
      {"measurement": "effect on cell cycle", "setting": "A549 NSCLC cells", "value": "G1 cell cycle arrest; also recorded: accumulation of cells in G1 phase is evident"}
    ]}
  ]
}
